The target in the assay is T1, F508delCFTR (Homo sapiens, UniProt P13569, DEL508-508).
T1 construct: expressed in transfected cells; host or cells: CFBE41o- (human lung derived epithelial cell line), doxycycline-inducible expression
Briefly: Cell Surface Expression-Horse Radish Peroxidase (CSE-HRP) assay. The note with it: CFBE41o-F508delCFTR-HRP cells; for Maximum % activity (with co-corrector): with co-corrector (2 μM); for Maximum % activity (with co-corrector) / Maximum % activity (without co-corrector): normalized to on-plate positive control, highest concentration 20 μM. It is filed as cell-based. In short, it runs like this:
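Surface F508delCFTR-HRP was read by luminol luminescence after 18–24 h compound exposure at 33 °C, without or with 2 μM co-corrector. Doses were eight 3-fold steps from 20 μM, in doxycycline-induced (0.5 μg/mL, 72 h) CFBE41o- cells. % activity was scaled to the on-plate 2 μM positive control minus DMSO; EC50 came from a variable-slope sigmoid fit.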

Where [1] appears, read: test compound without co-corrector, 18-24 hours at 33° C., read-out: EC50 (without co-corrector).
The mark [2] stands for this setting: with co-corrector (2 μM of 3-[(2R,4R)-4-({[1-(2,2-difluoro-1,3-benzodioxol-5-yl)cyclopropyl]carbonyl}amino)-7-methoxy-3,4-dihydro-2H-chromen-2-yl]benzoic acid), read-out: EC50 (with co-corrector).

Molecules are shown by their SMILES. pEC50: −log10 of the molar value. Like-named read-outs stand apart in the source and are kept apart here.

As a reminder, the pEC50 is −log10 of the EC50, conventionally taken in molar units.

T1 sequence (P13569 with tags, fused parts or gaps DEL508-508): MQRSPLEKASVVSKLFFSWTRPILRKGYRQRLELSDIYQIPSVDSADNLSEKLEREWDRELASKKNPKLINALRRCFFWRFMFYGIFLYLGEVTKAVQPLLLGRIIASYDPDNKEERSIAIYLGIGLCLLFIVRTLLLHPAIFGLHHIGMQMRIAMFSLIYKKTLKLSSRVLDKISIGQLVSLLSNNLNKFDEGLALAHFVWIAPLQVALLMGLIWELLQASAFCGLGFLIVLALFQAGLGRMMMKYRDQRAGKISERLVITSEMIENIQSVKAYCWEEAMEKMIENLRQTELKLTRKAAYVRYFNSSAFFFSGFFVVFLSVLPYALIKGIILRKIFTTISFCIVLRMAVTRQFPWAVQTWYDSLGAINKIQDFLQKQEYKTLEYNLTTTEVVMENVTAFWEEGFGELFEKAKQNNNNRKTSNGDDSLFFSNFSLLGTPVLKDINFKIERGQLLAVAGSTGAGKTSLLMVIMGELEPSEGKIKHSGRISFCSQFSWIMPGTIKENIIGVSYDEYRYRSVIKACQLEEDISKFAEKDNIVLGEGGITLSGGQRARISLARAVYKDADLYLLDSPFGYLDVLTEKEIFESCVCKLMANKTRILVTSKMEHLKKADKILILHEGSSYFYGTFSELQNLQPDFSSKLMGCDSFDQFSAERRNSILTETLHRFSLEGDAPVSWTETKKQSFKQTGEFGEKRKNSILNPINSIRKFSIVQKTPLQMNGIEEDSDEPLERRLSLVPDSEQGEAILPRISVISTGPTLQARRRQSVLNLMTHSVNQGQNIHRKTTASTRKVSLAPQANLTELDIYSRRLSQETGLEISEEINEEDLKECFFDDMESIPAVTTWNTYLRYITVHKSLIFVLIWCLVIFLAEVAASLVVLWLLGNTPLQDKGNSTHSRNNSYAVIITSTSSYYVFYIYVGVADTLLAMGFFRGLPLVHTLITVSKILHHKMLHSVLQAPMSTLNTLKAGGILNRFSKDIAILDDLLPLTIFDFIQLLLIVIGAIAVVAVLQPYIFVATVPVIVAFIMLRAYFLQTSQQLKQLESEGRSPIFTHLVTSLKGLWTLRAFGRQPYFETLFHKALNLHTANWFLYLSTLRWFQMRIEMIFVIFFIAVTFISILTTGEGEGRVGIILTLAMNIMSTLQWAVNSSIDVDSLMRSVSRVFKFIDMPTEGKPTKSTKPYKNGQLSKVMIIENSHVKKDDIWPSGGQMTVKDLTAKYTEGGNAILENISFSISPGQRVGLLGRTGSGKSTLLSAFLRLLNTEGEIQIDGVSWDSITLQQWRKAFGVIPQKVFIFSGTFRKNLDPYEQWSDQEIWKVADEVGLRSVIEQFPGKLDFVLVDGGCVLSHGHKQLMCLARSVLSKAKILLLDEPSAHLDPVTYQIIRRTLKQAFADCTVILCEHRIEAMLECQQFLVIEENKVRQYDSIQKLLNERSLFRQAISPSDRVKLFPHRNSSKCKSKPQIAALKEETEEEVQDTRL

As for `COc1ncc(C(F)(F)F)cc1CO[C@H]1[C@H](C(C)(C)C)[C@@H](C(=O)O)N(C(=O)C2CCOCC2)[C@H]1c1ccccc1C(C)C` [Example 110, (2S,3R,4S,5S)-3-tert-butyl-4-{[2-methoxy-5-(trifluoromethyl)pyridin-3-yl]methoxy}-1-(oxane-4-carbonyl)-5-[2-(propan-2-yl)phenyl]pyrrolidine-2-carboxylic acid], the “Maximum % activity (with co-corrector)” value is listed as “+++ (≥350)”; the “Maximum % activity (without co-corrector)” value was “++ (≥100 and <200)”. Also, the pEC50 under setting [1] was 5.00 to 6.00. In addition, under setting [2], the negative logarithm of the EC50 (pEC50) is 5.00 to 6.00.

Consider `COc1ccc(C(F)(F)F)cc1OCCO[C@H]1[C@H](C(C)(C)C)[C@@H](C(=O)O)N(C(=O)[C@@H]2CCCCO2)[C@H]1c1ccccc1C` [Example 288, (2S,3R,4S,5S)-3-tert-butyl-4-{2-[2-methoxy-5-(trifluoromethyl)phenoxy]ethoxy}-5-(2-methylphenyl)-1-[(2S)-oxane-2-carbonyl]pyrrolidine-2-carboxylic acid], for which the “Maximum % activity (with co-corrector)” value is listed as “+++ (≥350)”; the “Maximum % activity (without co-corrector)” value was “++ (≥100 and <200)”. In addition, the pEC50 under setting [1] was 5.00 to 6.00. Further, the pEC50 under setting [2] was 5.00 to 6.00.

As for `CCc1ccccc1[C@H]1[C@@H](OCc2cc(C(F)(F)F)cnc2OC)[C@H](C(C)(C)C)[C@@H](C(=O)O)N1C(=O)[C@@H]1CCCCO1` [Example 179, (2S,3R,4S,5S)-3-tert-butyl-5-(2-ethylphenyl)-4-{[2-methoxy-5-(trifluoromethyl)pyridin-3-yl]methoxy}-1-[(2S)-oxane-2-carbonyl]pyrrolidine-2-carboxylic acid], the “Maximum % activity (with co-corrector)” value is “+++ (≥350)” and the “Maximum % activity (without co-corrector)” value is given as “+++ (≥200)”. Under setting [1], the pEC50 was over 6.00. Moreover, the negative-log EC50 (pEC50) under setting [2] is over 6.00.

For the molecule `COc1ncc(C(C)(C)C)cc1CO[C@H]1[C@H](C(C)(C)C)[C@@H](C(=O)O)N(C(=O)OC(C)C)[C@H]1c1cccc(Cl)c1` [Example 80, (2S,3R,4S,5S)-3-tert-butyl-4-[(5-tert-butyl-2-methoxypyridin-3-yl)methoxy]-5-(3-chlorophenyl)-1-{[(propan-2-yl)oxy]carbonyl}pyrrolidine-2-carboxylic acid], the “Maximum % activity (with co-corrector)” value was “++ (≥150 and <350)”; the “Maximum % activity (without co-corrector)” value was “+ (<100)”. For the same molecule, under setting [1], the negative logarithm of the EC50 (pEC50) is 5.00 to 6.00. Under setting [2], the pEC50 was 5.00 to 6.00.

`COc1ncc(C(F)(F)F)cc1CO[C@H]1[C@H](C(C)(C)C)[C@@H](C(=O)O)N(C(=O)[C@@H]2CCCO2)[C@H]1c1ccccc1Br` [Example 159, (2S,3R,4S,5S)-5-(2-bromophenyl)-3-tert-butyl-4-{[2-methoxy-5-(trifluoromethyl)pyridin-3-yl]methoxy}-1-[(2S)-oxolane-2-carbonyl]pyrrolidine-2-carboxylic acid]: the “Maximum % activity (with co-corrector)” value is “+++ (≥350)” and the “Maximum % activity (without co-corrector)” value is “+ (<100)”. Also, the pEC50 under setting [1] is over 6.00. Moreover, the negative logarithm of the EC50 (pEC50) under setting [2] was over 6.00.

Turning to `Cc1cc(C)c2cc(CO[C@H]3[C@H](C(C)(C)C)[C@@H](C(=O)O)N(C(=O)[C@@H]4CCCCO4)[C@H]3c3ccccc3C)c(Cl)nc2c1` [Example 236, (2S,3R,4S,5S)-3-tert-butyl-4-[(2-chloro-5,7-dimethylquinolin-3-yl)methoxy]-5-(2-methylphenyl)-1-[(2S)-oxane-2-carbonyl]pyrrolidine-2-carboxylic acid], the “Maximum % activity (with co-corrector)” value was “+++ (≥350)”; the “Maximum % activity (without co-corrector)” value was “++ (≥100 and <200)”. Further, the negative-log EC50 (pEC50) under setting [1] was 5.00 to 6.00. For the same molecule, the pEC50 under setting [2] is 5.00 to 6.00.

On to `COc1ccc(C(F)(F)F)cc1CO[C@@H]1[C@@H](C(C)(C)C)[C@H](C(=O)O)N(C(=O)C2CCCCC2)[C@@H]1c1ccccc1` [Example 18, (2R,3S,4R,5R)-3-tert-butyl-1-(cyclohexanecarbonyl)-4-{[2-methoxy-5-(trifluoromethyl)phenyl]methoxy}-5-phenylpyrrolidine-2-carboxylic acid], for which the “Maximum % activity (with co-corrector)” value is “++ (≥150 and <350)”; the “Maximum % activity (without co-corrector)” value is listed as “+ (<100)”. For the same molecule, the pEC50 under setting [1] was under 5.00. In addition, the pEC50 under setting [2] is 5.00 to 6.00.

`COc1ncc(C(F)(F)F)cc1CO[C@H]1[C@H](C(C)(C)C)[C@@H](C(=O)O)N(C(=O)[C@H]2CCCC[C@@H]2C(F)(F)F)[C@H]1c1cccnc1OC(C)C` (single isomer, unassigned) [Example 283]: the “Maximum % activity (with co-corrector)” value is recorded as “+++ (≥350)” and the “Maximum % activity (without co-corrector)” value is recorded as “+ (<100)”. In addition, under setting [1], the negative logarithm of the EC50 (pEC50) was over 6.00. The negative-log EC50 (pEC50) under setting [2] is 5.00 to 6.00.

As for `COc1nc(C(C)(C)C)ccc1CO[C@H]1[C@H](C(C)(C)C)[C@@H](C(=O)O)N(C(=O)OC(C)C)[C@H]1c1ccccc1` [Example 72, (2S,3R,4S,5S)-3-tert-butyl-4-[(6-tert-butyl-2-methoxypyridin-3-yl)methoxy]-5-phenyl-1-{[(propan-2-yl)oxy]carbonyl}pyrrolidine-2-carboxylic acid], the “Maximum % activity (with co-corrector)” value is listed as “+++ (≥350)” and the “Maximum % activity (without co-corrector)” value is reported as “+ (<100)”. For the same molecule, the pEC50 under setting [1] is 5.00 to 6.00. Also, under setting [2], the negative-log EC50 (pEC50) is 5.00 to 6.00.

As for `CCc1ccccc1[C@H]1[C@@H](OCc2cc3cccc(C(F)(F)F)c3o2)[C@H](C(C)(C)C)[C@@H](C(=O)O)N1C(=O)[C@@H]1CCCCO1` [Example 292, (2S,3R,4S,5S)-3-tert-butyl-5-(2-ethylphenyl)-1-[(2S)-oxane-2-carbonyl]-4-{[7-(trifluoromethyl)-1-benzofuran-2-yl]methoxy}pyrrolidine-2-carboxylic acid], the “Maximum % activity (with co-corrector)” value is “+++ (≥350)”; the “Maximum % activity (without co-corrector)” value was “++ (≥100 and <200)”. Further, under setting [1], the negative logarithm of the EC50 (pEC50) was 5.00 to 6.00. Besides, the pEC50 under setting [2] is 5.00 to 6.00.

With `COc1nc2c(C)cccc2cc1CO[C@H]1[C@H](C(C)(C)C)[C@@H](C(=O)O)N(C(=O)[C@@H]2CCCCO2)[C@H]1c1ccccc1C` [Example 244, (2S,3R,4S,5S)-3-tert-butyl-4-[(2-methoxy-8-methylquinolin-3-yl)methoxy]-5-(2-methylphenyl)-1-[(2S)-oxane-2-carbonyl]pyrrolidine-2-carboxylic acid], the “Maximum % activity (with co-corrector)” value is reported as “+++ (≥350)”; the “Maximum % activity (without co-corrector)” value is “++ (≥100 and <200)”. Moreover, the pEC50 under setting [1] is 5.00 to 6.00. Moreover, under setting [2], the negative logarithm of the EC50 (pEC50) was 5.00 to 6.00.

Regarding `COc1ncc(-c2ccc(C)cc2)cc1CO[C@H]1[C@H](C(C)(C)C)[C@@H](C(=O)O)N(C(=O)OC(C)C)[C@H]1c1ccccc1` [Example 71, (2S,3R,4S,5S)-3-tert-butyl-4-{[2-methoxy-5-(4-methylphenyl)pyridin-3-yl]methoxy}-5-phenyl-1-{[(propan-2-yl)oxy]carbonyl}pyrrolidine-2-carboxylic acid], the “Maximum % activity (with co-corrector)” value was “+++ (≥350)” and the “Maximum % activity (without co-corrector)” value is reported as “+ (<100)”. For the same molecule, the negative-log EC50 (pEC50) under setting [1] was 5.00 to 6.00. The pEC50 under setting [2] was 5.00 to 6.00.

The record behind these values is patent publication US10399940B2, “Substituted pyrrolidines and methods of use” (AbbVie S.à.r.l., priority 2016, dated 2019).
